Data published in patent US20090005424A9, “Composition and Method for Treating Fibrotic Diseases” (priority 2005, published 2009).
Like-named read-outs stand apart in the source and are kept apart here. Marks after values point to notes of the source that are not given here.

Experiments:
Human Stellate Cells = experiment: MTT proliferation assay, human stellate cells; type: cell-based
Protocol: (§1) Cell proliferation was measured by MTT assay. DMEM with 10% fetal serum was used as cell culture medium. The cells were prepared in suspension (1×10^5/ml), and 100 μL of the suspension was transferred to each well of a 96 wells plate. Once the cells were attached to the plastic, the culture was changed to serum free medium and incubated for another 24 hours. Then, the serum free medium was aspirated, and various concentrations of 1-(3′-fluorophenyl)-5-methyl-2(1H)-pyridone (AKF-PD) or PIRFENIDONE (PFD) in 10% serum medium were added into each well with 5 replicates for each concentration. The cells were stained with MTT (10 μL per well) at 12, 24, or 48 hours post drug treatment. After 4 hrs of incubation, the medium with MTT was aspirated from each well. One hundred μL MTT solvent was added to each well for 15 min, and the dissolved MTT was then measured with a plate reader at 570 nm.

[1] = tested on: Human Peritoneal Mesothelial Cells; experiment: MTT proliferation assay, human peritoneal mesothelial cells; type: cell-based
Protocol: In the following examples, myocardiac fibroblasts, skin scar forming fibroblast and human peritoneal mesothelial cells are primary cultures prepared according to common procedure. Other cells are commercially purchased. 1-(3-fluorophenyl)-5-methyl-2(1H)-pyridone (AKF-PD) is prepared as a suspension in 5% carboxymethylcellulose.
as §1, with “[…],” for “24,”, “was” for “was then”

[2] = tested on: SD rat, Unilateral Ureteral Obstruction (UUO) model; experiment: Rat UUO model of renal interstitial fibrosis, histological score (Example 8); type: in vivo; details: UUO rats; AKF-PD 500 mg/kg/d, Enalapril 10 mg/kg/d by gavage; 14 days post surgery; Radford's method
Protocol: Anti-fibrotic effect of AKF-PD was tested on a SD rat model for renal interstitial fibrosis induced by surgical ligation of single side ureter (Unilateral Ureteral Obstruction, UUO, model). Eight weeks old male SD rats (180 g˜220 g) were randomly divided into sham surgical group, disease model group, Enalapril (10 mg/kg/d) group and AKF-PD (500 mg/kg/d) group. […] The animals of the sham surgical group experienced the same surgical procedure except the ligation step. The respective drugs were administrated by gavage to rats in the groups of Enalapril and AKF-PD from one day prior to the procedure to 14 days post surgical procedure. Normal saline was administrated in a similar fashion to the rats in the groups of disease model and sham surgical. The animals were sacrificed 14 days after surgical procedure and their left kidney were removed for pathological (HE staining) examination. Histological scoring for interstitial compartment was done according to Radford's method (Radford et al., Predicting renal outcome in IgA nephropathy. J. Am. Soc. Nephrol. 8: 199-207(1997)).

[3] = tested on: ICR mice injected with bleomycin; experiment: Bleomycin-induced mouse pulmonary fibrosis, histological score of lung tissue; type: in vivo; details: AKF-PD and PFD 500 mg/kg, captopril 12.5 mg/kg by gavage day 1 to 28, Szapiel's method
Protocol: Under regular care condition, 7-10 weeks old, male, institute of cancer research (ICR) mice, weight 28-39 g, were randomly grouped as normal control, disease, disease/AKF-PD, disease/PFD and disease Captopril group.
Control group was injected with normal saline once day from day 2 to 15 days. Disease, disease/AKF-PD, disease/PFD and disease/captopril groups were injected with bleomycin once day from day 2 to 15. Control and disease groups were given 0.5% CMC by gavage once a day from day 1 to day 28. 500 mg/kg of AKF-PD CMC suspension and PD CMC suspension and 12.5 mg/kg captopril in saline were administered to respective groups by gavage once day from day 1 to day 28. All animals were sacrificed on day 29 and their lungs were removed for pathological (HE staining) examination.
Histological scoring for the lung tissue was done according Szapiel's method.

Kun Ming (KM) mice [4] = experiment: Acute oral toxicity in Kun Ming mice, LD50 by Bliss method; details: mouse, in vivo
Protocol: Male and female Kun Ming (KM) mice weighing between 18 g-22 g were acquired from the animal facility of Hsiang-Ya Medical College, the Central South University. Fifty Kun Ming mice were randomly assigned into 5 groups with 5 male and 5 female mice for each group. The animals went through fasting with a normal water supply before starting drug treatment (either AKF-PD or PIRFENIDONE). The drug was administrated orally by gavage. The volume of liquid drug was 20 ml/kg body weight. The range of dosage for AKF-PD administrated was from 1071 mg/kg to 6000 mg/kg. The dosage difference between two adjacent doses was 1:0.65 (a dose vs the next lower dose). All animals were maintained under a regular condition. Acute toxic reaction and death within 14 days of post drug treatment were recorded. Autopsy was performed on all dead animals and visual examination was performed on all organs.
LD50 was calculated according to Bliss method. […] The results of Table 15 are very close to those reported in the literature: 997.7 mg/kg (U.S. Pat. No. 5,310,562) and 1112 mg/kg(Pharmaceutical Care and Research 5:4823(2005)).

Kun Ming (KM) mice [5] = details: cited from earlier work

Structure (SMILES)	Optical Density at 570 nm (Human Stellate Cells; 100 μg/ml, 12 h)	Optical Density at 570 nm (Human Stellate Cells; 100 μg/ml, 24 h)	Optical Density at 570 nm (Human Stellate Cells; 100 μg/ml, 48 h)	Optical Density at 570 nm (Human Stellate Cells; 500 μg/ml, 12 h)	Optical Density at 570 nm (Human Stellate Cells; 500 μg/ml, 24 h)	Optical Density at 570 nm (Human Stellate Cells; 500 μg/ml, 48 h)	Optical Density at 570 nm (Human Stellate Cells; 1000 μg/ml, 12 h)	Optical Density at 570 nm (Human Stellate Cells; 1000 μg/ml, 24 h)	Optical Density at 570 nm (Human Stellate Cells; 1000 μg/ml, 48 h)	Optical Density at 570 nm (Human Stellate Cells; 2500 μg/ml, 12 h)	Optical Density at 570 nm (Human Stellate Cells; 2500 μg/ml, 24 h)	Optical Density at 570 nm (Human Stellate Cells; 2500 μg/ml, 48 h)	Optical Density at 570 nm ([1]; 100 μg/ml, 12 h)	Optical Density at 570 nm ([1]; 100 μg/ml, 24 h)	Optical Density at 570 nm ([1]; 100 μg/ml, 48 h)	Optical Density at 570 nm ([1]; 500 μg/ml, 12 h)	Optical Density at 570 nm ([1]; 500 μg/ml, 24 h)	Optical Density at 570 nm ([1]; 500 μg/ml, 48 h)	Histological Score for Lung Tissue, Mean [3]	also measured
Cc1ccc(=O)n(-c2cccc(F)c2)c1 [AKF-PD, 1-(3′-fluorophenyl)-5-methyl-2(1H)-pyridone]	0.202 ± 0.001	0.366 ± 0.002	0.442 ± 0.006	0.202 ± 0.001	0.341 ± 0.003	0.406 ± 0.002	0.198 ± 0.001	0.312 ± 0.003	0.385 ± 0.004	0.195 ± 0.002	0.273 ± 0.005	0.246 ± 0.001	0.344 ± 0.004	0.583 ± 0.004	0.807 ± 0.007	0.344 ± 0.005	0.573 ± 0.004	0.758 ± 0.010	2.0000	anti-proliferative potency compared with PIRFENIDONE (Human Stellate Cells; human stellate cells): more potent anti-proliferative agent than PIRFENIDONE; Optical Density at 570 nm ([1]; 1000 μg/ml, 12 h): 0.343 ± 0.004; Optical Density at 570 nm ([1]; 1000 μg/ml, 24 h): 0.553 ± 0.004; Optical Density at 570 nm ([1]; 1000 μg/ml, 48 h): 0.704 ± 0.003; Optical Density at 570 nm ([1]; 2500 μg/ml, 12 h): 0.346 ± 0.005; Optical Density at 570 nm ([1]; 2500 μg/ml, 24 h): 0.502 ± 0.003; Optical Density at 570 nm ([1]; 2500 μg/ml, 48 h): 0.646 ± 0.006; anti-proliferative potency compared with PIRFENIDONE ([1]; human peritoneal mesothelial cells): more potent anti-proliferative agent than PIRFENIDONE; Histological Score for Interstitial Compartment [2]: 6.43 ± 1.28; LD50 as percent of that of PIRFENIDONE (Kun Ming (KM) mice [4]; both, Kun Ming (KM), 14 days): 30%; LD50 95% confidence limit (Kun Ming (KM) mice [4]; both, Kun Ming (KM), po, 14 days): (2402.70 − 3695.73) mg/kg; toxicity relative to that of PIRFENIDONE (Kun Ming (KM) mice [4]): one third
Cc1ccc(=O)n(-c2ccccc2)c1 [PFD, 5-methyl-1-phenyl-2(1H)-pyridone, reference compound]	0.206 ± 0.003	0.371 ± 0.001	0.447 ± 0.003	0.202 ± 0.001	0.345 ± 0.002	0.413 ± 0.001***^++	0.201 ± 0.001	0.330 ± 0.001***^++	0.402 ± 0.001***^++	0.198 ± 0.001	0.278 ± 0.001***^+	0.306 ± 0.002***^+++	0.346 ± 0.006	0.584 ± 0.005	0.810 ± 0.006	0.343 ± 0.004	0.577 ± 0.003	0.766 ± 0.004	2.0909	LD50 reported in the literature (Kun Ming (KM) mice [5]; Pharmaceutical Care and Research 5:4823(2005)): 1112 mg/kg; LD50 reported in the literature (Kun Ming (KM) mice [5]; U.S. Pat. No. 5,310,562): 997.7 mg/kg
